Tests used:
Assay in all cases: relative viability (nuclei count vs DMSO), 5 days (fraction); higher = more cells survive
[1] = compound: COC1=CC=C(C=C1)CN2C=CC3=C2C=C(C=C3)C(=O)NO + C[C@@H](Oc1cc(-c2cnn(C3CCNCC3)c2)cnc1N)c1c(Cl)ccc(F)c1Cl [Crizotinib] (partner 1 µM)
How it was run: (§1)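 Relative viability is defined as nuclei in treated wells over nuclei in vehicle wells. Duplicate plates were run and medians reported. Lung cancer cell lines in 1536-well plates were dosed by pin tool one day after seeding, with one drug or with a fixed anchor-drug dose plus five library-drug doses (not always all listed) in √10 steps, and nuclei were counted after 5 days.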

[2] = compound: COC1=CC=C(C=C1)CN2C=CC3=C2C=C(C=C3)C(=O)NO + Nc1ncn([C@H]2C[C@H](O)[C@@H](CO)O2)c(=O)n1 [Decitabine] (partner 2 µM)
How it was run: as §1

Veliparib + Tozasertib = compound: C[C@]1(c2nc3c(C(N)=O)cccc3[nH]2)CCCN1 [Veliparib] + Cc1cc(Nc2cc(N3CCN(C)CC3)nc(Sc3ccc(NC(=O)C4CC4)cc3)n2)n[nH]1 [Tozasertib] (partner 0.1 µM)
How it was run: as §1

Veliparib + Vorinostat = compound: C[C@]1(c2nc3c(C(N)=O)cccc3[nH]2)CCCN1 [Veliparib] + O=C(CCCCCCC(=O)Nc1ccccc1)NO [Vorinostat] (partner 1 µM)
How it was run: as §1

Cell Line	relative viability ([1]; first compound 0.253 µM)	relative viability ([1]; first compound 0.8 µM)	relative viability ([1]; first compound 2.53 µM)	relative viability ([1]; first compound 8 µM)	relative viability ([2]; first compound 0.08 µM)	relative viability ([2]; first compound 0.253 µM)	relative viability ([2]; first compound 0.8 µM)	relative viability ([2]; first compound 2.53 µM)	relative viability ([2]; first compound 8 µM)	relative viability (Veliparib + Tozasertib; first compound 0.02 µM)	relative viability (Veliparib + Tozasertib; first compound 0.06325 µM)	relative viability (Veliparib + Tozasertib; first compound 0.2 µM)	relative viability (Veliparib + Tozasertib; first compound 0.6325 µM)	relative viability (Veliparib + Tozasertib; first compound 2 µM)	relative viability (Veliparib + Vorinostat; first compound 0.02 µM)	relative viability (Veliparib + Vorinostat; first compound 0.06325 µM)	relative viability (Veliparib + Vorinostat; first compound 0.2 µM)	relative viability (Veliparib + Vorinostat; first compound 0.6325 µM)	relative viability (Veliparib + Vorinostat; first compound 2 µM)	relative viability ([1]; first compound 0.08 µM)
NCI-H838	0.911	0.882	0.853	0.829	0.441	0.455	0.476	0.456	0.505	0.344	0.28	0.285	0.256	0.25	0.792	0.692	0.71	0.652	0.725	
EPLC-272H	0.906	1.08	0.867	0.896		0.407	0.385	0.457	0.378	0.273	0.227	0.224	0.2	0.249		0.457	0.424	0.518	0.474	0.825
NCI-H23	0.708	0.445	0.343	0.401	0.291	0.325	0.377	0.301	0.296	0.38	0.429	0.434	0.381	0.426	0.633	0.45	0.544	0.543	0.56	0.481
EMC-BAC-2	0.828	0.746	0.708	0.687	0.606		1.02	0.968	0.876	0.306	0.29	0.339	0.286	0.286	0.606		0.646	0.638	0.493	0.224
NCI-H2405	0.865	0.87	0.925	0.819	0.516		0.791	0.752	0.66	0.793	0.689	0.714	0.724	0.777	0.812		1.01	1.12	1.09	0.649
NCI-H661	0.814	1.08	1.05	1		0.591	0.61	0.519	0.44	0.349	0.363	0.336	0.329	0.388	0.815	0.807	0.713	0.697	0.76	
NCI-H650	0.832	0.68	0.71	0.656	0.298	0.306	0.359	0.3	0.296	0.809	0.683	0.773	0.686	0.799	0.29	0.333	0.397	0.457	0.432	0.378
HCC-15	0.805	0.919	0.787	0.814	0.529	0.718	0.742	0.714	0.642	0.361	0.356	0.464	0.362	0.354	0.838	0.927	0.862	0.803	0.757	0.616
PC-14	0.898	0.908	0.924	0.809	0.212	0.259	0.198	0.223	0.244	0.638	0.584	0.562	0.526	0.674		0.622	0.701	0.639	0.64	0.675
NCI-H1944	1.18	1.1	1.09	1.08		0.431	0.384	0.456	0.406	0.261	0.253	0.252	0.251	0.249	0.491	0.498	0.388	0.44	0.459	
SK-MES-1	0.983	0.984	1	0.885	0.397	0.377	0.436	0.369	0.343	0.972	0.903	0.843	0.821	0.858	1.19	1.08	1.09	1.04	1.07	1
HCC-44	0.781	0.824	0.852	0.815	0.943	0.992	0.974	0.988	0.881	1.04		1.15	0.956	0.919	1.07	1.03	1.07	1.06	1.15	0.746
H3255	0.933	0.88	0.833	0.787	0.565	0.551	0.627	0.55	0.567	0.624	0.664	0.704	0.612	0.538	0.707	0.768	0.793	0.799	0.936	0.571
COR-L 105	0.847	0.714	0.775	0.434	0.515	0.618	0.752	0.601	0.604	0.35	0.307	0.434	0.313	0.346	1.02	0.823	0.869	0.698	0.813	
RERF-LC-KJ	0.756	0.864	0.816	0.814	0.74	0.675	0.645	0.738	0.599	0.515	0.5	0.521	0.481	0.485	0.51	0.61	0.679	0.665	0.64	0.618
NCI-H647	1	1.04	0.914	1.01	0.509	0.401	0.434	0.426	0.405	0.28	0.346	0.263	0.357	0.254	0.584	0.606	0.385	0.366	0.427	0.868
ChaGo-K-1	1.24	1.06	1.09	0.926		0.502	0.526	0.525	0.488	0.206	0.217	0.219	0.199	0.24	0.555	0.735	0.662	0.65	0.74	
NCI-H358	0.645	0.546	0.597	0.395		0.221	0.292	0.197	0.179	0.121	0.107	0.106	0.106	0.102	0.728	0.661	0.877	0.669	0.76	
LK-2	0.256	0.258	0.255	0.226		0.303	0.295	0.296	0.224		0.152	0.159	0.221	0.18	0.223	0.284	0.319	0.258	0.29	
NCI-H460	0.959	0.846	0.882	0.917	0.457	0.461	0.468	0.432	0.43	0.512	0.438	0.334	0.478	0.308	0.693	0.608	0.599	0.602	0.635	0.774
SK-LU-1	1.17	0.992	1.01	0.749	0.611	0.616	0.634	0.753	0.531	0.366	0.32	0.37	0.344	0.343	0.946	0.837	0.906	0.722	0.754	0.929
LU99A	0.573	0.541	0.562	0.553		0.959	0.952	0.843	0.911	0.328	0.271	0.239	0.245	0.279	0.513	0.477	0.396	0.441	0.402	
UMC-11	0.704	0.564	0.554	0.56		0.369	0.595	0.575	0.509	0.234	0.223	0.231	0.213	0.212	0.432	0.354	0.365	0.381	0.394	0.269
NCI-H1650	0.982	1.05	0.915	0.693	0.358	0.407	0.423	0.392	0.328		0.441	0.486	0.448	0.526	0.57	0.471	0.523	0.627	0.6	0.902
PC-3 [JPC-3]	1.02	1.02	1.05	0.965	0.764		0.775	0.833	0.832	0.87	0.902	0.822	0.864	0.845	0.68		1.02	1.03	0.922	0.969
A-427	0.857	1.03	0.828	0.884	0.263		0.554	0.584	0.5		0.232	0.181	0.198	0.283	0.813	0.867	0.867	0.842	0.934	
HCC-366	0.476	0.534	0.413	0.352	0.231	0.365	0.351	0.337	0.264	0.159	0.147	0.108	0.137	0.112	0.379	0.232	0.296	0.27	0.289	
LCLC-97TM1	0.285	0.395	0.259	0.237		0.224	0.236	0.225	0.181	0.231	0.237	0.204	0.197	0.253	0.455	0.797	0.849	0.632	0.637	
